# Reference: US20130071897A1, “METHOD FOR CONTROLLING UNDESIRABLE BYPRODUCTS FORMATION CAUSED BY CONTAMINATING ORGANISMS IN THE PRODUCTION OF ETHANOL FROM SYNGAS” (COSKATA, INC., priority 2011, published 2013)
# Values joined by “and” are separate entries in the source; they are usually repeats but may differ in a detail not shown here. Equal values may be shown once.
# Experiments:
# [1] = test system: Clostridium tyrobutyricum; assay: Serum bottle batch fermentation of Clostridium tyrobutyricum on fructose, optical density; format: cell-based; settings: for O.D. Response: 5 mM, duplicates A and B
# Procedure: Ethyl 3-(trifluoromethyl)benzoate is evaluated in a series of batch fermentations to determine the growth response of butyrogens to the presence of this compound at varying concentrations. The batch fermentations are conducted by anoxically filling 100 mL serum bottles with 15 mL of media having the composition given in Tables 12 and 13. About 0.15 mL of a 50% w/w solution of fructose in water (final fructose concentration about 5 g/L) is provided in the bottles. Duplicate runs are conducted for each concentration.
# (§1) Each bottle is inoculated with 1.5 mL of seed culture inoculum of the strict butyrogen Clostridium tyrobutyricum, which has an OD of about 0.40 (which upon a 10 times dilution provides a starting OD for the fermentation of about 0.04). The bottles are maintained at a temperature of 37° C. Two hours after inoculation of the bottles with the bacteria, the compound is added to different bottles as a solution in 50 μL of N-methylpyrrolidone in the amounts indicated in Table 15. The fermentation process is allowed to progress at 37° C. At selected intervals of time, bacterial growth is measured by reading the optical density (OD) of the fermentation liquid. Optical density is measured by anoxically removing an aliquot of fermentation liquid and adding it to a disposable cuvette. OD's ranging between 0.01 and 0.4 are measured directly, while OD's greater than 0.4 are measure after performing a 1/10 dilution with water.
# In this example ethyl 4,4,4-trifluoro-3-(trifluoromethyl)crotonate and ethyl 3-trifluoromethyl-4-methoxybenzoate are evaluated by batch fermentation. The batch fermentations are conducted by anoxically filling 100 mL serum bottles with 15 mL of media having the composition given in Tables 12 and 13. About 0.15 mL of a 50% w/w solution of fructose in water (final fructose concentration about 5 g/L) is provided in the bottles. Duplicate runs are conducted for each concentration.
# as §1, with “of about 0.42 (which upon” for “of about 0.40 (which upon”, “of about 0.042). The bottles” for “of about 0.04). The bottles”, “in Table 16 and 17. The fermentation” for “in Table 15. The fermentation”, “0.4 are measured after performing” for “0.4 are measure after performing”
# C. autoethanogenum = assay: Toxicity to C. autoethanogenum by batch fermentation using syngas substrate, optical density; format: cell-based, Clostridium autoethanogenum; settings: for O.D. Response of Various Inhibitors on C. autoethanogenum: Table 21, one value per compound; for O.D. Response to Various Inhibitors: duplicates A and B, amount not given
# Procedure: In this example various crotonate-like compounds on are evaluated for toxicity to C. autoethanogenum by batch fermentation using syngas substrate. The batch fermentations are conducted by anoxically filling 100 mL serum bottles with 10 mL of media having the composition given in Tables 12 and 13. Duplicate runs are conducted for each concentration. The compounds are: • C-1 Ethyl 4,4,4-trifluoro-3-(trifluoromethyl)crotonate • C-4 4,4,4-Trifluorocrotonamide • C-9 Ethyl 4,4,4-Trifluoro-3-(amino)crotonate • C-18 3 trifluoromethyl-4-methoxybenzoate.
# Each bottle is inoculated with 1.0 mL of seed culture inoculum from an active fermenter using syngas substrate and containing Clostridium autoethanogenum, which inoculum has an OD of about 4.92 (which upon a 10 times dilution provides a starting OD for the fermentation of about 0.49). The bottles are gased with syngas to about 100 kilopascals and maintained at a temperature of 37° C. The bottles are regassed with syngas every 8 to 12 hours. The syngas has the approximate composition set forth in Examples 6 to 10. Twenty four hours after inoculation of the bottles with the bacteria, the compounds are added to different bottles as a solution in 50 μL of N-methylpyrrolidone in the amounts indicated in Tables 20 and 21. The fermentation process is allowed to progress at 37° C. At selected intervals of time, bacterial growth is measured by reading the OD of the fermentation liquid using a Thermo Spectronic Genesys 20 spectrophotometer. Optical density is measured by anoxically removing an aliquot of fermentation liquid and adding it to a disposable cuvette. OD's ranging between 0.01 and 0.4 are measured using fermentation liquid directly, while OD's greater than 0.4 are measure after performing a 1/10 dilution with water.
# [2] = 0 Hours, added 24 h after inoculation
# [3] = 2.5 Hours, added 24 h after inoculation
# [4] = 6.5 Hours, added 24 h after inoculation
# [5] = 24.5 Hours, added 24 h after inoculation
smiles,measurement,setting,value
"CCOC(=O)/C=C(\N)C(F)(F)F [B, ethyl-3-amino-4,4,4-trifluorocrotonate]",O.D. Response to Varying Inhibitor Concentrations,"[1]; 100 ppm, 22.5 Hours, added 25 h after inoculation",0.84
same,O.D. Response to Varying Inhibitor Concentrations,"[1]; 100 ppm, 28.5 Hours",1.48
same,O.D. Response to Varying Inhibitor Concentrations,"[1]; 100 ppm, 43.5 Hours",1.53
same,O.D. Response to Varying Inhibitor Concentrations,"[1]; 250 ppm, 22.5 Hours, added 25 h after inoculation",0.86
same,O.D. Response to Varying Inhibitor Concentrations,"[1]; 250 ppm, 28.5 Hours",1.87
same,O.D. Response to Varying Inhibitor Concentrations,"[1]; 250 ppm, 43.5 Hours",1.92
same,O.D. Response to Varying Inhibitor Concentrations,"[1]; 500 ppm, 22.5 Hours, added 25 h after inoculation",0.80
same,O.D. Response to Varying Inhibitor Concentrations,"[1]; 500 ppm, 28.5 Hours",0.93
same,O.D. Response to Varying Inhibitor Concentrations,"[1]; 500 ppm, 43.5 Hours",1.00
same,O.D. Response to Varying Inhibitor Concentrations,"[1]; 1000 ppm, 22.5 Hours, added 25 h after inoculation",0.70
same,O.D. Response to Varying Inhibitor Concentrations,"[1]; 1000 ppm, 28.5 Hours",0.77
same,O.D. Response to Varying Inhibitor Concentrations,"[1]; 1000 ppm, 43.5 Hours",0.78
same,O.D. Response of Various Inhibitors on C. autoethanogenum,C. autoethanogenum; [2],0.49
same,O.D. Response of Various Inhibitors on C. autoethanogenum,C. autoethanogenum; [3],0.41
same,O.D. Response of Various Inhibitors on C. autoethanogenum,C. autoethanogenum; [4],0.44
same,O.D. Response of Various Inhibitors on C. autoethanogenum,C. autoethanogenum; [5],1.06
same,O.D. Response of Various Inhibitors on C. autoethanogenum,C. autoethanogenum; 30.5 Hours,1.38
same,O.D. Response of Various Inhibitors on C. autoethanogenum,C. autoethanogenum; 47.5 Hours,1.90
same,O.D. Response of Various Inhibitors on C. autoethanogenum,C. autoethanogenum; 56 Hours,1.98
same,O.D. Response to Various Inhibitors,C. autoethanogenum; [2],0.49
same,O.D. Response to Various Inhibitors,"C. autoethanogenum; 2.5 Hours, added 24 h after inoculation, listed as C-9",0.40 and 0.42
same,O.D. Response to Various Inhibitors,"C. autoethanogenum; 6.5 Hours, added 24 h after inoculation, listed as C-9",0.42 and 0.46
same,O.D. Response to Various Inhibitors,"C. autoethanogenum; 24.5 Hours, added 24 h after inoculation, listed as C-9",1.14 and 0.97
same,O.D. Response to Various Inhibitors,"C. autoethanogenum; 30.5 Hours, added 24 h after inoculation, listed as C-9",1.28 and 1.47
same,O.D. Response to Various Inhibitors,"C. autoethanogenum; 47.5 Hours, added 24 h after inoculation, listed as C-9",1.67 and 2.12
"CCOC(=O)C=C(C(F)(F)F)C(F)(F)F [Compound A, ethyl 4,4,4-trifluoro-3-(trifluoromethyl)crotonate]",O.D. Response,"[1]; 0 Hours, added 2 h after inoculation",0.42
same,O.D. Response,"[1]; 2 Hours, added 2 h after inoculation",0.10
same,O.D. Response,[1]; 4.5 Hours,0.14 and 0.11
same,O.D. Response,[1]; 6 Hours,0.13
same,O.D. Response,[1]; 24 Hours,0.12
same,O.D. Response of Various Inhibitors on C. autoethanogenum,C. autoethanogenum; [2],0.49
same,O.D. Response of Various Inhibitors on C. autoethanogenum,C. autoethanogenum; [3],0.44
same,O.D. Response of Various Inhibitors on C. autoethanogenum,C. autoethanogenum; [4],0.44
same,O.D. Response of Various Inhibitors on C. autoethanogenum,C. autoethanogenum; [5],1.12
same,O.D. Response of Various Inhibitors on C. autoethanogenum,C. autoethanogenum; 30.5 Hours,1.18
same,O.D. Response of Various Inhibitors on C. autoethanogenum,C. autoethanogenum; 47.5 Hours,0.66
same,O.D. Response of Various Inhibitors on C. autoethanogenum,C. autoethanogenum; 56 Hours,0.58
same,O.D. Response to Various Inhibitors,C. autoethanogenum; [2],0.49
same,O.D. Response to Various Inhibitors,"C. autoethanogenum; 2.5 Hours, added 24 h after inoculation, listed as C-1",0.42 and 0.46
same,O.D. Response to Various Inhibitors,"C. autoethanogenum; 6.5 Hours, added 24 h after inoculation, listed as C-1",0.42 and 0.46
same,O.D. Response to Various Inhibitors,"C. autoethanogenum; 24.5 Hours, added 24 h after inoculation, listed as C-1",1.17 and 1.08
same,O.D. Response to Various Inhibitors,"C. autoethanogenum; 30.5 Hours, added 24 h after inoculation, listed as C-1",1.15 and 1.22
same,O.D. Response to Various Inhibitors,"C. autoethanogenum; 47.5 Hours, added 24 h after inoculation, listed as C-1",0.66 and 0.67
